Like-named read-outs stand apart in the source and are kept apart here.
Columns and labels:
CYP3A4 = CYP3A4 (Homo sapiens (Human), UniProt P08684); experiment: CYP3A4 inhibition with and without preincubation; format: in vitro ADME; settings: for inhibition at 15 µM: human, read-out: 15 μM % Inh
Procedure: (§1) Assessment of certain in vitro ADME (absorption, distribution, metabolism, and excretion) parameters for Compound I was conducted by BioFocus (Saffron Walden, UK). The results reveal that Compound I is cleared rapidly by human hepatocytes and that it has a reduced liability for time-dependent cytochrome P450 inhibition.

CYP2C9 = CYP2C9 (Homo sapiens (Human), UniProt P11712); experiment: CYP2C9 inhibition with and without preincubation; format: in vitro ADME; settings: for inhibition at 5 μM: human, 5 μM (precipitation at 15 μM), read-out: % Inh, inhibition at 5 μM reported instead
Sequence of CYP2C9 (P11712 whole entry): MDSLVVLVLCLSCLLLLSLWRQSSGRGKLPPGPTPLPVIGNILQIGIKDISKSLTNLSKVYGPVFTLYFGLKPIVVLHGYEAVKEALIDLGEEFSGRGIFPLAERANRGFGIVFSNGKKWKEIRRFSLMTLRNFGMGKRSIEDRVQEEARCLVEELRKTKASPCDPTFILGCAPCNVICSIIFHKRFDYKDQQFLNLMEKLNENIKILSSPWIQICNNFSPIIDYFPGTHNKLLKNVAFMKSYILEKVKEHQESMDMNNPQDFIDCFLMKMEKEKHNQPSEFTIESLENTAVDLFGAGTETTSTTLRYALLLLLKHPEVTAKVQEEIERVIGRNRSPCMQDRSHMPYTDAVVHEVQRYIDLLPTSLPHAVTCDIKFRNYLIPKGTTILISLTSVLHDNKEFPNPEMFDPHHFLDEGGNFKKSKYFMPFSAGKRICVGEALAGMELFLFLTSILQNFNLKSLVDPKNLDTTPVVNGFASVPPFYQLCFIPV
Procedure: as §1

[1] = Hydrolytic stability study; format: physicochemical; settings: DMSO and water (3:1), 1 mg/mL
Procedure: Chemical stability of Compound I was assessed in a mixture of DMSO and water (3:1) at a test compound concentration of 1 mg/mL
Sample Preparation • A 1.0 mg sample of test compound was dissolved in 750 μL of DMSO. Water (250 μL) was added slowly, ensuring no precipitation occurred.
Recording Stability • A 50 μL aliquot of the test solution was removed and analysed in duplicate by 5 μL HPLC injections. The peak area for the test compound was recorded following manual integration of the corresponding UV trace. • The test solution was heated to 60° C., with stirring, and 50 μL aliquots removed for HPLC analysis at 5 and 24 h timepoints.

d-U937 cells = experiment: Accumulation of β catenin in d-U937 cells; format: cell-based, human; settings: 1 μg/mL; normalised to Reference compound at 1 μg/mL
Procedure: U937 cells, a human monocytic cell line, are differentiated into macrophage-type cells by incubation with PMA (100 ng/mL) for between 48 to 72 hr. The cells are then incubated with either final concentrations of test compound or vehicle for 18 hr. The induction of β-catenin by the test compound is stopped by replacing the media with 4% formaldehyde solution. Endogenous […] is neutralised by incubating with quenching buffer (100 μL, 0.1% sodium azide, 1% H2O2 in PBS with 0.05% Tween-20) for 20 min. The cells are washed with washing buffer (200 μL; PBS containing 0.05% Tween-20) and incubated with blocking solution (200 μL; 5% milk in PBS) for 1 hr, re-washed with washing buffer (200 μL) and then incubated overnight with anti-β-catenin antibody solution (50 μL) in 1% BSA/PBS (BD, Oxford, UK).
After washing with washing buffer (3×200 μL; PBS containing 0.05% Tween-20), cells are incubated with a HRP-conjugated secondary antibody solution (100 μL) in 1% BSA/PBS (Dako, Cambridge, UK) and the resultant signal is determined colourimetrically (OD: 450 nm with a reference wavelength of 655 nm) using TMB substrate (50 μL; R&D Systems, Abingdon, UK). This reaction is stopped by addition of 1N H2SO4 solution (50 μL). Cells are then washed with washing buffer and 2% crystal violet solution (50 μL) is applied for 30 min. After washing with washing buffer (3×200 μL), 1% SDS (100 μL) is added to each well and the plates are shaken lightly for 1 hr prior to measuring the absorbance at 595 nm (Varioskan® Flash, Thermo-Fisher Scientific).
The measured OD450-655 readings are corrected for cell number by dividing the OD450-655 by the OD595 readings.

non-mutant kinases = experiment: KinomeScan selectivity scores; format: binding; settings: for number of individual kinase hits, S(1): % Ctrl <1; for number of individual kinase hits, S(10): % Ctrl <10; for number of individual kinase hits, S(35): % Ctrl <35
Procedure: Kinase enzyme binding activities of compounds disclosed herein may be determined using a proprietary assay which measures active site-directed competition binding to an immobilized ligand (Fabian, M. A. et al., Nature Biotechnol., 2005, 23:329-336). These assays may be conducted by DiscoverX (formerly Ambit; San Diego, Calif.). The percentage inhibition produced by incubation with a test compound may be calculated relative to the non-inhibited control.

Sequence of CYP3A4 (P08684 whole entry): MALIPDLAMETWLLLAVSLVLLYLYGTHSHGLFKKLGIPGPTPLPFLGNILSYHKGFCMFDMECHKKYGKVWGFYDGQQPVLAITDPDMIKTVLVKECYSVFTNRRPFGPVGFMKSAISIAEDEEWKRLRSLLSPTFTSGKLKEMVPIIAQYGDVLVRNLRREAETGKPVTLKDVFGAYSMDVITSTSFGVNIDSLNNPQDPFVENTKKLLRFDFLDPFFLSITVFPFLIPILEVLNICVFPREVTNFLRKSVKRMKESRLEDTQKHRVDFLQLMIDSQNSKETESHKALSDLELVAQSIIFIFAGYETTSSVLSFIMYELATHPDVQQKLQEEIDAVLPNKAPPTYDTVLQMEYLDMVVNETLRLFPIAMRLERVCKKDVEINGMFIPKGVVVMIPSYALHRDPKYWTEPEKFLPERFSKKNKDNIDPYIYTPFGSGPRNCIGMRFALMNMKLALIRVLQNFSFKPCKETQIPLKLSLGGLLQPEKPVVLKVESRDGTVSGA

C#CC(C)(C)c1cc(NC(=O)Nc2ccc(Oc3ccnc(Nc4cc(C)c5[nH]ncc5c4)n3)c3ccccc23)n(-c2ccc(C)cc2)n1 [Ref Cpd A, 1-(4-((2-((7-methyl-1H-indazol-5-yl)amino)pyrimidin-4-yl)oxy)-naphthalen-1-yl)-3-(3-(2-methylbut-3-yn-2-yl)-1-(p-tolyl)-1H-pyrazol-5-yl)urea, reference compound]
IC50 (CYP3A4; CYP3A4, 0 min preincubation): > 15 µM
IC50 (CYP3A4; CYP3A4, 30 min preincubation): 0.4 µM
inhibition at 15 µM (CYP3A4; CYP3A4, 0 min preincubation): 41%
inhibition at 15 µM (CYP3A4; CYP3A4, 30 min preincubation): 92%
IC50 (CYP2C9; CYP2C9, 0 min preincubation): > 5 µM
IC50 (CYP2C9; CYP2C9, 30 min preincubation): 1.4 µM
inhibition at 5 μM (CYP2C9; CYP2C9, 0 min preincubation): 31%
inhibition at 5 μM (CYP2C9; CYP2C9, 30 min preincubation): 66%

C#Cc1cc(Nc2nccc(Oc3ccc(NC(=O)Nc4cc(C(C)C)nn4-c4ccc(C)cc4)c4ccccc34)n2)cc(C(=O)NCCN2CCOCC2)c1 [Reference Compound B, 3-ethynyl-5-((4-((4-(3-(3-isopropyl-1-(p-toly)-1H-pyrazol-5-yl)ureido)naphthalen-1-yl)oxy)pyrimidin-2-yl)amino)-N-(2-morpholinoethyl)benzamide, reference compound]
% Parent Remaining ([1]; 0 min): 100%
% Parent Remaining ([1]; 60° C., 300 min): 82%
% Parent Remaining ([1]; 60° C., 1440 min): 36%

COCC(=O)Nc1cc(Oc2ccc(NC(=O)Nc3cc(C(C)(C)C)nn3-c3ccc(C)cc3)c3ccccc23)ccn1 [Reference Compound, N-(4-(4-(3-(3-tert-butyl-1-p-tolyl-1H-pyrazol-5-yl)ureido)naphthalen-1-yloxy)pyridin-2-yl)-2-methoxyacetamide, reference compound]
% β-catenin induction (d-U937 cells): 100%
number of individual kinase hits, S(1) (non-mutant kinases; 50 nM): 7
number of individual kinase hits, S(10) (non-mutant kinases; 50 nM): 32
number of individual kinase hits, S(35) (non-mutant kinases; 50 nM): 67
number of individual kinase hits, S(1) (non-mutant kinases; 500 nM): 45
number of individual kinase hits, S(10) (non-mutant kinases; 500 nM): 105
number of individual kinase hits, S(35) (non-mutant kinases; 500 nM): 143

From US8927563B2, “Kinase inhibitor” (Respivert Limited, priority 2013, dated 2015)
